# Data reported in patent publication US20210052566A1, “METHODS FOR TREATING HEPATITIS B VIRUS (HBV) INFECTION” (INSERM (INSTITUT NATIONAL DE LA SANTÉ ET DE LA RECHERCHE …, priority 2018, published 2021).
# What was measured:
# HBV genotype D = experiment: Anti-HBV properties in persistently infected dHepaRG cells, genotype D (post-infection treatment); assay type: cell-based, Hepatitis B virus; conditions: treated three times with 10 microM
# Experimental: (§1) FIG. 1. Experimental outlines. Treatment schemes: (a) Treatments in pre-infection: dHepaRG cells were treated for 24 h (at day −1) with 100 nM of PreS1 peptide (PreS1-pep) or 10 μM of 1C8, or untreated (NT). At day 0, cells were inoculated with HBV (MOI=250) or with HDV (MOI=25) in the presence of drugs for 24 h. For the tenofovir control (TDF at 10 μM), cells were treated at day 1 and 4 post-infection. Supernatant and cells were harvested at day 7 post-infection. (b) Treatments in post-infection: dHepaRG cells were inoculated with HBV (MOI=250) or with HDV (MOI=25). At days 4, 7 and 9 post infection, cells were treated with TDF 10 μM, lamivudine (3TC) at 10 μM, 1C8 10 μM or untreated (NT). Supernatant and cells were harvested at day 11 postinfection.
# FIG. 5. Anti-HBV properties of 1C8 in persistently infected dHepaRG cells: genotype D. Differentiated HepaRG were infected with HBV genotype D at a MOI of 100 vge/cell or HDV genotype 1 at a MOI of 10 vge/cell for 7 days before being treated trice every 2-3 days with indicated molecules at a concentration of 10 microM. A) Total DNA and RNA were extracted from cells and subjected to qPCR and RTqPCR to detect HBV cccDNA, total HBV RNA or pregenomic HBV RNA. B) HBs and HBe secreted antigens in supernatant were quantified by ELISA, whereas HBV DNA contained in virions was quantified by qPCR after viral nucleic acid extraction from supernatant. C) Intracellular HDV RNA was quantified by RTqPCR after total RNA extraction from cells. D) Viability was monitored in 1C8-treated (or control treated; puromycin is a positive toxic molecule) cells by CellTiter-Glo® luminescent cell viability assay. Results are the mean+SEM of n=3 performed with 3 different differentiations of HepaRG. Statistics were done by two-tailed Mann-Whitney test, with following significativity: *P<0.05, **P<0.01, ***P<0.001, ****P<0.0001. nd=not determined
# Human liver progenitor HepaRG cells were cultured in Williams medium (ThermoFisher) supplemented with 10% of FBS (Perbio), Penicillin/Streptomycin (500 U/mL), glutamine (2 mM), hydrocortisone Upjohn (2.5 mg/L; Serb laboratory), insulin (5 mg/L; Sigma Aldrich). For the differentiation process 2% of DMSO was added to the above-described supplemented Williams medium. […] The multiplicity of infection (MOI; expressed as virus genome equivalent/cell) is indicated in the figure legends, but was of 100 vge/cell if not precised.
# From cell culture supernatants, secreted HBe and HBs antigens were quantified by ELISA, using a chemiluminescence immunoassay kit (Autobio, China) following manufacturer's instructions. […]
# A HBV standard was used for quantification of extracellular viral DNA and RNA. […]
# HDV genotype 1 = experiment: Establishment of HDV infection in dHepaRG (treatment 24 h before and during inoculation); assay type: cell-based, hepatitis delta virus; conditions: 1C8 10 microM, Entry Inh. 100 nM
# Experimental: as §1
# FIG. 7. Effect of 1C8 on de novo establishment of ccDNA in dHepaRG (genotype D). […] B) HBs and HBe secreted antigens in supernatant were quantiUied by ELISA, whereas HBV DNA contained in virions was quantified by qPCR after viral nucleic acid extraction from supernatant. […] Statistics were done by two-tailed Mann-Whitney test, with following signiUicativity: *P<0.05, **P<0.01, ***P<0.001, ****P<0.0001. nd=not determined.
# [1] = target: serine/arginine-rich splicing factor 10 (SRSF10) (human) (UniProt O75494); experiment: Strep-Tactin affinity purification of StrepTag-HBc complexes from hepatocyte nuclei, LC-MS/MS
# serine/arginine-rich splicing factor 10 (SRSF10) (human), sequence (O75494 whole entry): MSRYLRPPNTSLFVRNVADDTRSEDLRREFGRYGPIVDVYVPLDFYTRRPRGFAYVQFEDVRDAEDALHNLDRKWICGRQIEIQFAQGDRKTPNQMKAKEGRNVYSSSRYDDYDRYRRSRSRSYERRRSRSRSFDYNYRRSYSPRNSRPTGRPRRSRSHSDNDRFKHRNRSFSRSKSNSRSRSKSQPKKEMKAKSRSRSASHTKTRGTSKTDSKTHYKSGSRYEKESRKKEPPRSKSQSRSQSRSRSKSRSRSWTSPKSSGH
# StrepTag-HBc (core/capsid protein of HBV with a StrepTag at the N terminus), sequence (P03146 whole entry): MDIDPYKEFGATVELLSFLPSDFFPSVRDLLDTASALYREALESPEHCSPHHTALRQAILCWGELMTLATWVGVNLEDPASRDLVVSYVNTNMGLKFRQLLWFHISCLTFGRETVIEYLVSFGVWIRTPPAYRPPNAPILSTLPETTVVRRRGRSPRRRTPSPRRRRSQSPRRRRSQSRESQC
compound,measurement,setting,value
"C[C@H](Cn1cnc2c(N)ncnc21)OCP(=O)(O)O [tenofovir, reference compound]",impact on accumulation of intracellular HBV RNA,HBV genotype D,not capable to impact
"Entry Inh.: PreS1 peptide, aa 2 to 48 of HBV PreS1 (SEQ ID No 1), N-terminal myristoyl, used for inhibiting HBV entry [reference compound]",block of the establishment of HDV infections,HDV genotype 1,inhibited
StrepTag-HBc (core/capsid protein of HBV with a StrepTag at the N terminus),enrichment in HBc complexes,[1],3000 times
